Laboratory results from patent US11000033B2, “Ketone or oxime compound, and herbicide” (NISSAN CHEMICAL CORPORATION, priority 2014, dated 2021).

How the values were obtained:
Assay type in all cases: in vivo
rapeseed = experiment: Test Example 5: effect on crop by foliage application, plastic box (symbol g); conditions: 320 g/ha, 3 weeks after application
Method in brief: (§1)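 Plants were raised from seed in a greenhouse (25° C. to 30° C.) after sowing in a plastic box of sterilized diluvial soil.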

[1] = system: Echinochloa crus-galli var. crus-galli; experiment: Test Example 5: herbicidal effect by foliage application, plastic box (symbol H); conditions: 320 g/ha, 3 weeks after application
Method in brief: (§2)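 After sowing into sterilized diluvial soil and growing two weeks under glass at 25° C. to 30° C., seedlings receive a uniform foliar spray of diluted emulsion. Damage is judged visually three weeks on.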

Abutilon theophrasti [2] = experiment: Test Example 5: herbicidal effect by foliage application, plastic box (symbol M); conditions: 320 g/ha, 3 weeks after application
Method in brief: as §2

Scirpus juncoides = experiment: Test Example 2: herbicidal activity, application during weed generation in submerged conditions (symbol B); conditions: Table 23; application herbicide amount 320 g/ha; grade 0-5 by criteria of Test Example 1
Method in brief: (§3)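 Treatment timing was the one- to two-leaf stage, with diluted emulsifiable compound dropped onto the paddy water (depth 4 cm) over alluvial soil. All three species grew from a mixed sowing in a 25° C. to 30° C. greenhouse. Injury was judged by eye 3 weeks on.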

[3] = system: Echinochloa oryzacola Vasing.; experiment: Test Example 1: herbicidal activity, application before weed generation in submerged conditions (symbol A); conditions: application herbicide amount 320 g/ha
Method in brief: (§4)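 Weeds are sown into submerged alluvial soil alongside transplanted 2.5-leaf rice, and the compound, as an emulsion diluted to a set rate, is applied onto the water before emergence. Rating on the 0–5 herbicidal-ratio scale follows 3 weeks of greenhouse growth at 25–30 °C.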

[4] = system: Echinochloa oryzacola Vasing.; experiment: Test Example 2: herbicidal activity, application during weed generation in submerged conditions (symbol A); conditions: Table 23; application herbicide amount 320 g/ha; grade 0-5 by criteria of Test Example 1
Method in brief: as §3

Avena fatua = experiment: Test Example 4: herbicidal effect by soil treatment (symbol I); conditions: application herbicide amount 320 g/ha
Method in brief: (§5)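 Seeds were sown in sterilized diluvial soil, covered with about 1.5 cm of soil, and the soil surface was sprayed with a water-diluted emulsion of the compound at a predetermined rate. Plants grew in a greenhouse at 25° C. to 30° C.; effects were scored visually 3 weeks after application.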

Abutilon theophrasti [5] = experiment: Test Example 4: herbicidal effect by soil treatment (symbol M); conditions: application herbicide amount 320 g/ha
Method in brief: as §5

rice = experiment: Test Example 4: effect on crop by soil treatment (symbol b); conditions: application herbicide amount 320 g/ha
Method in brief: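 Grown at 25° C. to 30° C. in a greenhouse, the crops came from seed sown spot-wise in sterilized diluvial soil under roughly 1.5 cm of covering soil.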

Monochoria vaginalis [6] = experiment: Test Example 1: herbicidal activity, application before weed generation in submerged conditions (symbol C); conditions: application herbicide amount 320 g/ha
Method in brief: as §4

Monochoria vaginalis [7] = experiment: Test Example 2: herbicidal activity, application during weed generation in submerged conditions (symbol C); conditions: Table 23; application herbicide amount 320 g/ha; grade 0-5 by criteria of Test Example 1
Method in brief: as §3

Amaranthus retroflexus = experiment: Test Example 5: herbicidal effect by foliage application, plastic box (symbol N); conditions: 320 g/ha, 3 weeks after application
Method in brief: as §2

Digitaria ciliaris = experiment: Test Example 4: herbicidal effect by soil treatment (symbol F); conditions: application herbicide amount 320 g/ha
Method in brief: as §5

Alopecurus myosuroides = experiment: Test Example 4: herbicidal effect by soil treatment (symbol J); conditions: application herbicide amount 320 g/ha
Method in brief: as §5

beet = experiment: Test Example 5: effect on crop by foliage application, plastic box (symbol f); conditions: 320 g/ha, 3 weeks after application
Method in brief: as §1

Row | SMILES | g: rapeseed, effect on crop grade (rapeseed) | H: Echinochloa crus-galli var. crus-galli, herbicidal effect grade [1] | M: Abutilon theophrasti, herbicidal effect grade (Abutilon theophrasti [2]) | Herbicidal effect grade, B: Scirpus juncoides (Scirpus juncoides) | Herbicidal effect grade, A: Echinochloa oryzacola Vasing. [3] | Herbicidal effect grade, A: Echinochloa oryzacola Vasing. [4] | I (Avena fatua) herbicidal effect grade (Avena fatua) | M (Abutilon theophrasti) herbicidal effect grade (Abutilon theophrasti [5]) | b (directly sowed rice plant) effect on crop grade (rice) | Herbicidal effect grade, C: Monochoria vaginalis (Monochoria vaginalis [6]) | Herbicidal effect grade, C: Monochoria vaginalis (Monochoria vaginalis [7]) | N: Amaranthus retroflexus, herbicidal effect grade (Amaranthus retroflexus) | F (Digitaria ciliaris) herbicidal effect grade (Digitaria ciliaris) | J (Alopecurus myosuroides) herbicidal effect grade (Alopecurus myosuroides) | f: beet, effect on crop grade (beet)
1 | CON=C(C)CC1CC(OC(=O)C2(C)CC2(Cl)Cl)=C(c2c(C)cc(C)cc2C)C1=O (stereo not drawn) [1-036] | 4 (Herbicidal ratio of 70% or higher and lower than 90%) | 5 (Herbicidal ratio of 90% or more (almost completely withered)) | 4 (Herbicidal ratio of 70% or higher and lower than 90%) | 4 (Herbicidal ratio of 70% or higher and lower than 90%) | 5 (Herbicidal ratio of 90% or more (almost completely withered)) | 5 (Herbicidal ratio of 90% or more (almost completely withered)) | 5 (Herbicidal ratio of 90% or more (almost completely withered)) | 5 (Herbicidal ratio of 90% or more (almost completely withered)) | 5 (Herbicidal ratio of 90% or more (almost completely withered)) | 1 (Herbicidal ratio of 5% or higher and lower than 20%) | 2 (Herbicidal ratio of 20% or higher and lower than 40%) | 4 (Herbicidal ratio of 70% or higher and lower than 90%) | 5 (Herbicidal ratio of 90% or more (almost completely withered)) | 5 (Herbicidal ratio of 90% or more (almost completely withered)) | 3 (Herbicidal ratio of 40% or higher and lower than 70%)
2 | CON=CC(C)(C)C1CC(O)=C(c2c(C)cc(C)cc2C)C1=O (stereo not drawn) [1-030] | 3 (Herbicidal ratio of 40% or higher and lower than 70%) | 4 (Herbicidal ratio of 70% or higher and lower than 90%) | 0 (Herbicidal ratio of 5% or lower (almost no effect)) | 0 (Herbicidal ratio of 5% or lower (almost no effect)) | 2 (Herbicidal ratio of 20% or higher and lower than 40%) | 2 (Herbicidal ratio of 20% or higher and lower than 40%) | 0 (Herbicidal ratio of 5% or lower (almost no effect)) | 0 (Herbicidal ratio of 5% or lower (almost no effect)) | 4 (Herbicidal ratio of 70% or higher and lower than 90%) | 0 (Herbicidal ratio of 5% or lower (almost no effect)) | 0 (Herbicidal ratio of 5% or lower (almost no effect)) | 0 (Herbicidal ratio of 5% or lower (almost no effect)) | 3 (Herbicidal ratio of 40% or higher and lower than 70%) | 3 (Herbicidal ratio of 40% or higher and lower than 70%) | 0 (Herbicidal ratio of 5% or lower (almost no effect))
3 | CON=C(C)CC1CC(OC(=O)COc2ccc(OC)cc2)=C(c2c(C)cc(C)cc2C)C1=O (stereo not drawn) [1-069] | 4 (Herbicidal ratio of 70% or higher and lower than 90%) | 5 (Herbicidal ratio of 90% or more (almost completely withered)) | 5 (Herbicidal ratio of 90% or more (almost completely withered)) | 4 (Herbicidal ratio of 70% or higher and lower than 90%) | 5 (Herbicidal ratio of 90% or more (almost completely withered)) | 4 (Herbicidal ratio of 70% or higher and lower than 90%) | 3 (Herbicidal ratio of 40% or higher and lower than 70%) | 4 (Herbicidal ratio of 70% or higher and lower than 90%) | 5 (Herbicidal ratio of 90% or more (almost completely withered)) | 2 (Herbicidal ratio of 20% or higher and lower than 40%) | 3 (Herbicidal ratio of 40% or higher and lower than 70%) | 5 (Herbicidal ratio of 90% or more (almost completely withered)) | 5 (Herbicidal ratio of 90% or more (almost completely withered)) | 5 (Herbicidal ratio of 90% or more (almost completely withered)) | 1 (Herbicidal ratio of 5% or higher and lower than 20%)
4 | CON=C(CC1CC(O)=C(c2c(C)cc(C)cc2C)C1=O)C(C)(C)C (stereo not drawn) [1-059] | 3 (Herbicidal ratio of 40% or higher and lower than 70%) | 4 (Herbicidal ratio of 70% or higher and lower than 90%) | 0 (Herbicidal ratio of 5% or lower (almost no effect)) | 0 (Herbicidal ratio of 5% or lower (almost no effect)) | 5 (Herbicidal ratio of 90% or more (almost completely withered)) | 4 (Herbicidal ratio of 70% or higher and lower than 90%) | 0 (Herbicidal ratio of 5% or lower (almost no effect)) | 1 (Herbicidal ratio of 5% or higher and lower than 20%) | 4 (Herbicidal ratio of 70% or higher and lower than 90%) | 2 (Herbicidal ratio of 20% or higher and lower than 40%) | 0 (Herbicidal ratio of 5% or lower (almost no effect)) | 0 (Herbicidal ratio of 5% or lower (almost no effect)) | 4 (Herbicidal ratio of 70% or higher and lower than 90%) | 3 (Herbicidal ratio of 40% or higher and lower than 70%) | 0 (Herbicidal ratio of 5% or lower (almost no effect))
5 | CSCCON=C(C)CC1CC(O)=C(c2c(C)cc(C)cc2C)C1=O (stereo not drawn) [1-029] | 4 (Herbicidal ratio of 70% or higher and lower than 90%) | 5 (Herbicidal ratio of 90% or more (almost completely withered)) | 1 (Herbicidal ratio of 5% or higher and lower than 20%) | 0 (Herbicidal ratio of 5% or lower (almost no effect)) | 4 (Herbicidal ratio of 70% or higher and lower than 90%) | 4 (Herbicidal ratio of 70% or higher and lower than 90%) | 1 (Herbicidal ratio of 5% or higher and lower than 20%) | 0 (Herbicidal ratio of 5% or lower (almost no effect)) | 5 (Herbicidal ratio of 90% or more (almost completely withered)) | 0 (Herbicidal ratio of 5% or lower (almost no effect)) | 0 (Herbicidal ratio of 5% or lower (almost no effect)) | 0 (Herbicidal ratio of 5% or lower (almost no effect)) | 5 (Herbicidal ratio of 90% or more (almost completely withered)) | 3 (Herbicidal ratio of 40% or higher and lower than 70%) | 0 (Herbicidal ratio of 5% or lower (almost no effect))
